Results on 18 molecules are retold here after patent US12404289B2 (Gilead Sciences, Inc., priority 2020, dated 2025).

Where two headings read alike, the source gives them in different places.

Holding throughout (type): cell-based
Assay [1] has as its system Respiratory syncytial virus (RSV) strain A2. The assay is described as follows: Hep-2 RSV2 384-well assay (EC50-HEP2-384). Conditions: human respiratory syncytial virus, HEp-2, 96 h, HEp-2 cells, RSV A2, MOI=4, 4 days.
A further assay relates to SARS-CoV-2. The assay is described as follows: SARS-CoV-2 antiviral assay (A549-hACE2, Nano luciferase). Conditions: A549-hACE2 cells, SARS-CoV2-Nano, MOI 0.025, 48 h, Table 4, read-out: EC50 SARS CoV2.
The test system of assay [2] is Recombinant respiratory syncytial virus expressing the firefly luciferase protein (RSV-Fluc). The assay can be described thus: microbe, parasite or virus in culture. Conditions: Table 4.
The subject of assay [3] is Respiratory syncytial virus (RSV) strain A2. The assay is described as follows: RSV antiviral assay (HEp-2, 96 well). Conditions: Table 3.
Where [4] appears, read: Severe acute respiratory syndrome coronavirus 2, 48 h.
Where [5] appears, read: human respiratory syncytial virus, NHBE, 72 h, read-out: EC50 RSVFluc NHBE 96, NHBE cells, RSV-Fluc, MOI of 0.1, three days, 96 well.
[6] abbreviates: read-out: EC50 RSV HEP2 96, HEp-2 cells, RSV A2, MOI=4, 4 days, 96 well.
Where [7] appears, read: read-out: EC50 RSVFluc NHBE 96, NHBE cells, RSV-Fluc, MOI of 0.1, three days, 96 well.
Where [8] appears, read: human respiratory syncytial virus, HEp-2, 96 h, read-out: EC50 RSV HEP2 96, HEp-2 cells, RSV A2, MOI=4, 4 days, 96 well.

In general, EC50 refers to the midpoint of the concentration-response curve. Consider `CCOC(=O)[C@H](C)NP(=O)(OC[C@H]1O[C@@](C#N)(c2ccc3c(N)ncnn23)[C@H](OC(=O)C(C)C)[C@@H]1OC(=O)C(C)C)Oc1ccc(C(C)(C)C)cc1` (single isomer, unassigned) [Example 18a], for which the EC50 stood at 65.4 nM in assay [1] (Table 1), 312 nM in the assay with SARS-CoV-2 (setting [4]) and 22.2 nM in assay [2] (setting [5]).

Turning to `CC(C)C(=O)O[C@H]1[C@@H](OC(=O)C(C)C)[C@](C#N)(c2ccc3c(N)ncnn23)O[C@@H]1COP(=O)(N[C@@H](C)C(=O)OC1CCC1)Oc1ccc(C(C)(C)C)cc1` (single isomer, unassigned) [Example 50a], the EC50 was found to be 21.3 nM in assay [3] (setting [6]), 38.8 nM in the assay with SARS-CoV-2 and 27.5 nM in assay [2] (setting [7]).

For the molecule `CC(C)C(=O)O[C@H]1[C@@H](OC(=O)C(C)C)[C@](C#N)(c2ccc3c(N)ncnn23)O[C@@H]1COP(=O)(N[C@@H](C)C(=O)OC1CCC1)Oc1ccc(C(C)(C)C)cc1` (single isomer, unassigned) [Example 50b], the EC50 in assay [3] (setting [6]) was 8.52 nM; with SARS-CoV-2, 239 nM; in assay [2] (setting [7]) it was 5.36 nM.

Regarding `CC(C)C(=O)O[C@H]1[C@@H](OC(=O)C(C)C)[C@](C#N)(c2ccc3c(N)ncnn23)O[C@@H]1COP(=O)(N[C@@H](C)C(=O)OC1CCC1)Oc1cccc2ccccc12` (single isomer, unassigned) [Example 55a], the EC50 was 7.09 nM in assay [3] (setting [8]), 104 nM in the assay with SARS-CoV-2 (setting [4]) and 19.9 nM in assay [2] (setting [7]).

As to `CC(C)C(=O)O[C@H]1[C@@H](OC(=O)C(C)C)[C@](C#N)(c2ccc3c(N)ncnn23)O[C@@H]1COP(=O)(N[C@@H](C)C(=O)OC1CCC1)Oc1cccc2ccccc12` (single isomer, unassigned) [Example 55b], the half-maximal effective concentration (EC50) in assay [3] (setting [6]) was 7.44 nM; in the assay on SARS-CoV-2 it was 108 nM; in assay [2] (setting [7]), 6.12 nM.

With `CCC(CC)COC(=O)[C@H](C)NP(=O)(OC[C@H]1O[C@@](C#N)(c2ccc3c(N)ncnn23)[C@H](O)[C@@H]1O)Oc1ccc2ccccc2c1` (single isomer, unassigned) [Intermediate S3-b], the EC50 was determined as 18.8 nM in assay [3] (setting [6]) and 68 nM in assay [1] (Table 3).

For the molecule `CC(C)C(=O)O[C@H]1[C@@H](OC(=O)C(C)C)[C@](C#N)(c2ccc3c(N)ncnn23)O[C@@H]1COP(=O)(N[C@@H](C)C(=O)OC1CCC1)Oc1ccc(C2CC2)cc1` (stereo partly shown) [Example 52a], the EC50 in assay [3] (setting [8]) worked out at 20.5 nM; in the assay on SARS-CoV-2 (setting [4]), 64.5 nM; in assay [2] (setting [5]), 20.8 nM.

Turning to `C[C@H](NP(=O)(OC[C@H]1O[C@@](C#N)(c2ccc3c(N)ncnn23)[C@H](O)[C@@H]1O)Oc1ccc(C(C)(C)C)cc1)C(=O)OCCC(C)(C)C` (stereo partly drawn) [Example 61, 3,3-dimethylbutyl (2S)-2-[[[(2R,3S,4R,5R)-5-(4-aminopyrrolo[2,1-f][1,2,4]triazin-7-yl)-5-cyano-3,4-dihydroxy-tetrahydrofuran-2-yl]methoxy-(4-tert-butylphenoxy)phosphoryl]amino]propanoate], the EC50 in assay [3] (setting [8]) was found to be 36.7 nM; in assay [1] (Table 3), 72.4 nM.

For the molecule `C[C@H](NP(=O)(OC[C@H]1O[C@@](C#N)(c2ccc3c(N)ncnn23)[C@H](O)[C@@H]1O)Oc1ccc(C(C)(C)C)cc1)C(=O)OC1CC2(CCC2)C1` (stereo partly drawn) [Example 65, spiro[3.3]heptan-2-yl (2S)-2-[[[(2R,3S,4R,5R)-5-(4-aminopyrrolo[2,1-f][1,2,4]triazin-7-yl)-5-cyano-3,4-dihydroxy-tetrahydrofuran-2-yl]methoxy-(4-tert-butylphenoxy)phosphoryl]amino]propanoate], the figures for the 50% effective concentration (EC50) (in assay [3] (setting [8]); in the assay with SARS-CoV-2; in assay [2] (setting [7])) were 336 nM, 265 nM and 3.24 nM, respectively.

For the molecule `CCOC(=O)[C@H](C)NP(=O)(OC[C@H]1O[C@@](C#N)(c2ccc3c(N)ncnn23)[C@H](OC(=O)C(C)C)[C@@H]1OC(=O)C(C)C)Oc1cccc2ccccc12` (stereo partly drawn) [Example 67, [(2R,3R,4R,5R)-5-(4-aminopyrrolo[2,1-f][1,2,4]triazin-7-yl)-5-cyano-2-[[[[(1S)-2-ethoxy-1-methyl-2-oxo-ethyl]amino]-(1-naphthyloxy)phosphoryl]oxymethyl]-4-(2-methylpropanoyloxy)tetrahydrofuran-3-yl] 2-methylpropanoate], the EC50 in assay [3] (setting [8]) was determined as 18 nM; with SARS-CoV-2 (setting [4]) it was 27.2 nM; in assay [2] (setting [5]) it was 8.72 nM.

Take `CC(=O)O[C@H]1[C@@H](OC(C)=O)[C@](C#N)(c2ccc3c(N)ncnn23)O[C@@H]1COP(=O)(N[C@@H](C)C(=O)OC1CC2(CCC2)C1)Oc1ccc(C(C)(C)C)cc1` (stereo partly drawn) [Example 80, Spiro[3.3]heptan-2-yl (2S)-2-[[(4-tert-butylphenoxy)-[[(2R,3R,4R,5R)-3,4-diacetoxy-5-(4-aminopyrrolo[2,1-f][1,2,4]triazin-7-yl)-5-cyano-tetrahydrofuran-2-yl]methoxy]phosphoryl]amino]propanoate]: the EC50 is 16.9 nM in assay [3] (setting [8]), 310 nM in the assay on SARS-CoV-2 and 16.5 nM in assay [2] (setting [7]).

As to `CC(C)C(=O)O[C@H]1[C@@H](OC(=O)C(C)C)[C@](C#N)(c2ccc3c(N)ncnn23)O[C@@H]1COP(=O)(N[C@@H](C)C(=O)OC1CCOCC1)Oc1ccc(C(C)(C)C)cc1` (stereo partly drawn) [Example 90, [(2R,3R,4R,5R)-5-(4-aminopyrrolo[2,1-f][1,2,4]triazin-7-yl)-2-[[(4-tert-butylphenoxy)-[[(1S)-1-methyl-2-oxo-2-tetrahydropyran-4-yloxy-ethyl]amino]phosphoryl]oxymethyl]-5-cyano-4-(2-methylpropanoyloxy)tetrahydrofuran-3-yl] 2-methylpropanoate], the concentration giving a half-maximal response (EC50) in assay [3] (setting [8]) came to 20.4 nM; in assay [1] (Table 3) it was 124 nM.

In the case of `COC(C)(C)COC(=O)[C@H](C)NP(=O)(OC[C@H]1O[C@@](C#N)(c2ccc3c(N)ncnn23)[C@H](OC(=O)C(C)C)[C@@H]1OC(=O)C(C)C)Oc1ccc(C(C)(C)C)cc1` (stereo partly drawn) [Example 116, (2R,3R,4R,5R)-2-(4-aminopyrrolo[2,1-f][1,2,4]triazin-7-yl)-5-((((4-(tert-butyl)phenoxy)(((S)-1-(2-methoxy-2-methylpropoxy)-1-oxopropan-2-yl)amino)phosphoryl)oxy)methyl)-2-cyanotetrahydrofuran-3,4-diyl bis(2-methylpropanoate)], the figures for the EC50 (in assay [3] (setting [8]); in the assay on SARS-CoV-2 (setting [4]); in assay [2] (setting [5])) were 11.2 nM, 56 nM and 25 nM, respectively.

Regarding `CC(C)C(=O)O[C@H]1[C@@H](OC(=O)C(C)C)[C@](C#N)(c2ccc3c(N)ncnn23)O[C@@H]1COP(=O)(N[C@@H](C)C(=O)OCC1CCC1)Oc1ccccc1` (stereo partly drawn) [Example 117, (2R,3R,4R,5R)-2-(4-aminopyrrolo[2,1-f][1,2,4]triazin-7-yl)-2-cyano-5-((((((S)-1-(cyclobutylmethoxy)-1-oxopropan-2-yl)amino)(phenoxy)phosphoryl)oxy)methyl)tetrahydrofuran-3,4-diyl bis(2-methylpropanoate)], the EC50 in assay [3] (setting [8]) was determined as 11 nM; in the assay with SARS-CoV-2 (setting [4]), 192 nM; in assay [2] (setting [5]), 22.1 nM.

On to `CC(C)COC(=O)[C@H](C)NP(=O)(OC[C@H]1O[C@@](C#N)(c2ccc3c(N)ncnn23)[C@H](OC(=O)C(C)C)[C@@H]1OC(=O)C(C)C)Oc1ccc(C(C)(C)C)cc1` (stereo partly drawn) [Example 122, (2R,3R,4R,5R)-2-(4-aminopyrrolo[2,1-f][1,2,4]triazin-7-yl)-5-((((4-(tert-butyl)phenoxy)(((S)-1-isobutoxy-1-oxopropan-2-yl)amino)phosphoryl)oxy)methyl)-2-cyanotetrahydrofuran-3,4-diyl bis(2-methylpropanoate)], for which the figures for the EC50 (in assay [3] (setting [8]); with SARS-CoV-2 (setting [4]); in assay [2] (setting [5])) were 16.4 nM, 167 nM and 8.73 nM, respectively.

For `CCC(C)(C)COC(=O)[C@H](C)NP(=O)(OC[C@H]1O[C@@](C#N)(c2ccc3c(N)ncnn23)[C@H](OC(=O)C(C)C)[C@@H]1OC(=O)C(C)C)Oc1ccc(C(C)(C)C)cc1` (stereo partly drawn) [Example 126, (2R,3R,4R,5R)-2-(4-aminopyrrolo[2,1-f][1,2,4]triazin-7-yl)-5-((((4-(tert-butyl)phenoxy)(((S)-1-(2,2-dimethylbutoxy)-1-oxopropan-2-yl)amino)phosphoryl)oxy)methyl)-2-cyanotetrahydrofuran-3,4-diyl bis(2-methylpropanoate)], the 50% effective concentration (EC50) was 17 nM in assay [3] (setting [8]), 116 nM in assay [1] (Table 3) and 77.4 nM in the assay with SARS-CoV-2 (setting [4]).

On to `CC(=O)O[C@H]1[C@@H](OC(C)=O)[C@](C#N)(c2ccc3c(N)ncnn23)O[C@@H]1COP(=O)(N[C@@H](C)CC(=O)OC1CCC1)Oc1ccc(C(C)(C)C)cc1` (stereo partly drawn) [Example 166, (2R,3R,4R,5R)-2-(4-aminopyrrolo[2,1-f][1,2,4]triazin-7-yl)-5-((((4-(tert-butyl)phenoxy)(((S)-4-cyclobutoxy-4-oxobutan-2-yl)amino)phosphoryl)oxy)methyl)-2-cyanotetrahydrofuran-3,4-diyl Diacetate], for which the half-maximal effective concentration (EC50) in assay [1] (Table 3) worked out at 5000 nM; with SARS-CoV-2 (setting [4]) it was 10000 nM.

Consider `CCC(CC)COC(=O)[C@H](C)NP(=O)(OC[C@H]1O[C@@](C#N)(c2ccc3c(N)ncnn23)[C@H](O)[C@@H]1O)Oc1ccc2ccccc2c1` (stereo partly drawn) [Intermediate S3, 2-ethylbutyl ((((2R,3S,4R,5R)-5-(4-aminopyrrolo[2,1-f][1,2,4]triazin-7-yl)-5-cyano-3,4-dihydroxytetrahydrofuran-2-yl)methoxy)(naphthalen-2-yloxy)phosphoryl)-L-alaninate], for which the concentration for a half-maximal effect (EC50) came out at 113 nM in the assay on SARS-CoV-2 (setting [4]) and 5.51 nM in assay [2] (setting [5]).
